How the values were obtained:
bovine erythrocyte GPx = target: T1, bovine erythrocyte GPx (Bos taurus, UniProt P00435); experiment: GPx enzyme activity assay (TBHP/GSH, GR/NADPH coupled); assay type: biochemical
T1 construct: 180 μL of a bovine erythrocyte GPx1 solution (0.125 U/mL); purchased Sigma Aldrich (Taufkirchen, Germany); host or cells: bovine erythrocytes
T1 sequence (P00435 1-205): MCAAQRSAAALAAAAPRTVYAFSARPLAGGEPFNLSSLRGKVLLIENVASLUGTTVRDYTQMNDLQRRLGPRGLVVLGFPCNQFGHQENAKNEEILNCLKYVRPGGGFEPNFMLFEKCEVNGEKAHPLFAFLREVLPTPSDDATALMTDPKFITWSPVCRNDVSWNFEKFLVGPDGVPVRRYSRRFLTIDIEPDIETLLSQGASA
Experimental: The ability of pentathiepins to inhibit the bovine erythrocyte GPx activity was assayed for by an established enzyme method, which is based on the GPx‐dependent reduction of tert‐butyl hydroperoxide (TBHP) by GSH, leading to the formation of GSSG, which is coupled to the reduction of GSSG back to GSH by glutathione reductase (GR) and the oxidation of NADPH to NADP^+[10] (Figure 1). Inhibition potencies of the compounds were ranked by their IC50 values; that is, concentration of the inhibitor at the inflection point in the sigmoidal log dose‐inhibition curve (Figure 4A), and are summarized for the pentathiepins and mercaptosuccinic acid (MSA) in Table 1.
GPx enzyme activity assay: To evaluate if the various compounds could inhibit GPx1, an enzymatic assay monitoring the activity of the bovine erythrocyte GPx was used as described previously.33 Bovine erythrocyte GPx is highly homologous to the human GPx1 (homology of 87 %)34 but much more affordable. In this assay, GPx reduces tert‐butylhydroperoxide (TBHP) followed by oxidation of glutathione (GSH) to the disulfide (GSSG), which in turn is regenerated to GSH by glutathione reductase (GR) with the consumption of NADPH. To each well of a UV‐transparent 96‐well plate were added 180 μL of a bovine erythrocyte GPx1 solution (0.125 U/mL) and 30 μL of prospective inhibitor in different concentrations diluted in DMF and incubated under shaking for 15 min at room temperature. Then 30 μL of stock solutions of GSH (2.5 mM) and baker's yeast GR plus NADPH (2 U/mL; 2.0 mM) were added. All stock solutions were prepared in potassium phosphate buffer (50 mM, pH 7.4, EDTA 1.1 mM, Triton‐X 0.01 %). The reaction was started by addition of TBHP solution (5 mM), giving final concentrations of 0.075 U/mL bovine erythrocyte GPx, 0.2 U/mL GR, 0.25 mM GSH, 0.2 mM NADPH and prospective inhibitor concentrations between 0.2–100 μM. The reaction was followed by the rate of decreasing absorption of the NADPH at λ=340 nm, measured every 15 s for ca. 20 min. The GPx activity related to untreated control was imported into the GraphPad Prism 6.0 software and the IC50 values were calculated by estimating the inflection point of the sigmoidal log concentration‐activity curves.

bovine GPx1 = target: T2, bovine GPx1 (Bos taurus, UniProt P00435); experiment: Jump-dilution experiments for reversibility of GPx1 inhibition; assay type: biochemical; settings: 30 min pre-incubation at 23 °C, 100-fold jump-dilution
T2 construct: 180 μL of a bovine erythrocyte GPx1 solution (0.125 U/mL); purchased Sigma Aldrich (Taufkirchen, Germany); host or cells: bovine erythrocytes
T2 sequence (P00435 1-205): T1 sequence (P00435 1-205)
Experimental: No difference in the inhibitory activity of 4 after jump‐dilution (Figure 4B left, a) was observed compared to expected inhibition at 0.25 μM (Figure 4B left, 0.25 μM), evidence that GPx1 inhibition is reversible. […] This is consistent with findings that MSA can act as an irreversible inhibitor of GPx1.11 In further jump‐dilution experiments, we pre‐incubated both inhibitors with the assay concentrations of either GSH and TBHP (a, d) or GSH only (b, e), with (a–c) and without (d–f) GPx1 for 30 min.
The jump‐dilution experiments were carried out in a 96‐well plates at room temperature. To each well was added 75 μL of a 20 IU mL^−1 GPx stock‐solution followed by the addition of 3 μL of a 2.5 mM solution of 4 in DMF and 30 μL of a 2.5 mM solution of GSH in buffer or 30 μL of a 2.5 mM solution of GSH in buffer and 30 μL of a 5 mM solution of TBHP in water and 300 μL buffer. The plates were shaken for 30 min in the dark, then each well was diluted 100 fold into a second plate prepared for the GPx‐assay. The enzyme activity was immediately measured as described above.

[1] = Stability in GPx assay buffer with GSH by RP-HPLC; assay type: physicochemical
Experimental: It has been reported that pentathiepins are instable in the presence of thiols such as GSH.20 Thus, the stability of a representative pentathiepin, 4, in the presence of GSH was studied first by APCI‐MS. Incubations of 4 in the presence of 10 mM GSH, a biologically relevant concentration, were monitored at 23 °C for a period up to 1 h. […] Next, the stability of 4 was studied by RP‐HPLC in the same buffer and with the same GSH concentration (0.25 mM) used in the GPx assay (see below). Over the course of a 70 min incubation a nearly 30 % loss of the pentathiepin (Figure S32) was observed. However, since the GPx assay is only run for 20 min, the direct reaction between 4 and GSH would only account for a ca. 10 % loss of pentathiepin under assay conditions.
Melting points were determined with a Büchi Melting Point M‐565 or a Büchi 545 (Büchi, Flawil, CH), temperatures are uncorrected. ^1H NMR and ^13C NMR spectra were recorded either with a Bruker Avance II‐300 or an Avance II Ultrashield 400 MHz instrument. Chemical shifts δ are given in ppm and the solvent residual peak (CDCl3: ^1H, δ=7.27; ^13C, δ=77.0 and [D6]DMSO: ^1H, δ=2.50; ^13C, δ=40) was used as an internal standard with the quinoxaline derivatives while TMS was used for the indole derivatives. APCI‐MS (m/z) spectra were recorded on an Advion MS. […]

For `CCOc1c2c(c3cnc4cc(C)c(C)cc4n13)SSSSS2` [Compound 4], the IC50 (bovine erythrocyte GPx; 23 °C, n>3, 0.25 mM GSH, read-out: Enzyme inhibition IC50 (CI 95 %)) was 2440 nM, the “potency at inhibiting GPx1 compared to MSA” value (bovine erythrocyte GPx; ratio of IC50 values) was “twice as potent as MSA” and the “reversibility of GPx1 inhibition” value (bovine GPx1) was “reversible”. For the same compound, the “loss of the pentathiepin” value ([1]; 0.25 mM GSH in GPx assay buffer, 70 min, 23 °C, RP-HPLC) was roughly 30% and the “loss of pentathiepin under assay conditions” value ([1]; 0.25 mM GSH, 20 min GPx assay duration) was “ca. 10%”.

Source: article PMC7496275, “Pentathiepins: A Novel Class of Glutathione Peroxidase 1 Inhibitors that Induce Oxidative Stress, Loss of Mitochondrial Membrane Potential and Apoptosis in Human Cancer Cells” (Chemmedchem, 2020)
